Data taken from patent US10472346B2, “Potent gamma-secretase modulators” (The General Hospital Coporation, priority 2014, dated 2019).

tested on: Aβ42; experiment: Aβ42 IC50 assay (SHSYSY-APP cell-based screening, UCSD sandwich Aβ42 ELISA)
Text: FIG. 8: Representative concentration response curves of Compound 1 using our primary and orthogonal medium throughput SHSYSY-APP cell-based screening assays (10). Compounds are first screened two times in triplicate in our UCSD sandwich Aβ42 ELISA on sequential days and the average of the two assays must be within 3-fold of each other before being entered into the CDD relational database. The UCSD sandwich ELISA assay can easily handle 20 compounds per week. Compounds with Aβ42 IC50 values <100 nM continue through the testing funnel. The Z′ score and the % CV for the UCSD Aβ42 sandwich ELISA assay are 0.8 and 4, respectively. For the Meso Scale triplex assay the Z′ scores are 0.7, 0.9 and 0.6 Aβ42, Aβ40 and Aβ38, respectively and the % CV's are 7, 2 and 1 for Aβ42, Aβ40 and Aβ38, respectively. Aβ total peptides are measured using a sandwich ELISA.
Tabular Results of A1142 Assays Conducted on Compounds of Examples 5-102. Assays are Aβ42 IC50 (nM).

Row | IC50 | Compound
1 | 15 nM | COc1cc([C@H](C)Nc2nnc(-c3ccc(-n4cnc(C)c4)c(OC)n3)cc2C)ccc1F [Example 47, (S)—N-(1-(4-fluoro-3-methoxyphenyl)ethyl)-6-(6-methoxy-5-(4-methyl-1H-imidazol-1-yl)pyridin-2-yl)-4-methylpyridazin-3-amine]
2 | 6.3 nM | COc1nc(-c2cc(C)c(N[C@@H](C)c3cccc(C)c3)nn2)ccc1-n1cnc(C)c1 [Example 48, (S)-6-(6-methoxy-5-(4-methyl-1H-imidazol-1-yl)pyridin-2-yl)-4-methyl-N-(1-(m-tolyl)ethyl)pyridazin-3-amine]
3 | 7 nM | COc1nc(-c2cc(C)c(N[C@@H](C)c3cccc(C(F)(F)F)c3)nn2)ccc1-n1cnc(C)c1 [Example 49, (S)-6-(6-methoxy-5-(4-methyl-1H-imidazol-1-yl)pyridin-2-yl)-4-methyl-N-(1-(3-(trifluoromethyl)phenyl)ethyl)pyridazin-3-amine]
4 | 8.3 nM | COc1nc(-c2cc(C)c(N[C@@H](C)c3ccc(F)c(C)c3)nn2)ccc1-n1cnc(C)c1 [Example 51, (S)—N-(1-(4-fluoro-3-methylphenyl)ethyl)-6-(6-methoxy-5-(4-methyl-1H-imidazol-1-yl)pyridin-2-yl)-4-methylpyridazin-3-amine]
5 | 5 nM | COc1nc(-c2cc(C)c(N[C@@H](C)c3cc(F)c(F)c(F)c3)nn2)ccc1-n1cnc(C)c1 [Example 52, (S)-6-(6-methoxy-5-(4-methyl-1H-imidazol-1-yl)pyridin-2-yl)-4-methyl-N-(1-(3,4,5-trifluorophenyl)ethyl)pyridazin-3-amine]
6 | 9.8 nM | COc1nc(-c2cc(C)c(N[C@@H](C)c3ccc(F)c(C(F)(F)F)c3)nn2)ccc1-n1cnc(C)c1 [Example 53, (S)—N-(1-(4-fluoro-3-(trifluoromethyl)phenyl)ethyl)-6-(6-methoxy-5-(4-methyl-1H-imidazol-1-yl)pyridin-2-yl)-4-methylpyridazin-3-amine]
7 | 3.3 nM | COc1nc(-c2cc(C)c(N[C@@H](C)c3ccccc3C)nn2)ccc1-n1cnc(C)c1 [Example 55, (S)-6-(6-methoxy-5-(4-methyl-1H-imidazol-1-yl)pyridin-2-yl)-4-methyl-N-(1-(o-tolyl)ethyl)pyridazin-3-amine]
8 | 3 nM | COc1nc(-c2cc(C)c(N[C@@H](C)c3ccccc3C(F)(F)F)nn2)ccc1-n1cnc(C)c1 [Example 56, (S)-6-(6-methoxy-5-(4-methyl-1H-imidazol-1-yl)pyridin-2-yl)-4-methyl-N-(1-(2-(trifluoromethyl)phenyl)ethyl)pyridazin-3-amine]
9 | 4 nM | COc1nc(-c2cc(C)c(N[C@H](c3ccc(F)cc3)C(C)C)nn2)ccc1-n1cnc(C)c1 [Example 57, (S)—N-(1-(4-fluorophenyl)-2-methylpropyl)-6-(6-methoxy-5-(4-methyl-1H-imidazol-1-yl)pyridin-2-yl)-4-methylpyridazin-3-amine]
10 | 12 nM | COc1nc(-c2cc(C)c(N[C@@H](C)C3CCCCC3)nn2)ccc1-n1cnc(C)c1 [Example 58, (S)—N-(1-cyclohexylethyl)-6-(6-methoxy-5-(4-methyl-1H-imidazol-1-yl)pyridin-2-yl)-4-methylpyridazin-3-amine]
11 | 778 nM | COc1nc(-c2cc(C)c(N[C@@H](C)c3ccncc3)nn2)ccc1-n1cnc(C)c1 [Example 59, (S)-6-(6-methoxy-5-(4-methyl-1H-imidazol-1-yl)pyridin-2-yl)-4-methyl-N-(1-(pyridin-4-yl)ethyl)pyridazin-3-amine]
12 | 12 nM | COc1nc(-c2cc(C)c(NC3(c4ccc(F)cc4)CC3)nn2)ccc1-n1cnc(C)c1 [Example 60, N-(1-(4-fluorophenyl)cyclopropyl)-6-(6-methoxy-5-(4-methyl-1H-imidazol-1-yl)pyridin-2-yl)-4-methylpyridazin-3-amine]
13 | 27 nM | COc1nc(-c2cc(C)c(N[C@@H](C)C(C)C)nn2)ccc1-n1cnc(C)c1 [Example 61, (S)-6-(6-methoxy-5-(4-methyl-1H-imidazol-1-yl)pyridin-2-yl)-4-methyl-N-(3-methylbutan-2-yl)pyridazin-3-amine]
14 | 2160 nM | COC[C@H](C)Nc1nnc(-c2ccc(-n3cnc(C)c3)c(OC)n2)cc1C [Example 62, (S)-6-(6-methoxy-5-(4-methyl-1H-imidazol-1-yl)pyridin-2-yl)-N-(1-methoxypropan-2-yl)-4-methylpyridazin-3-amine]
15 | 79 nM | CC[C@H](C)Nc1nnc(-c2ccc(-n3cnc(C)c3)c(OC)n2)cc1C [Example 63, (S)—N-(sec-butyl)-6-(6-methoxy-5-(4-methyl-1H-imidazol-1-yl)pyridin-2-yl)-4-methylpyridazin-3-amine]
16 | > 10000 nM | COc1nc(-c2cc(C)c(N[C@@H](C)CO)nn2)ccc1-n1cnc(C)c1 [Example 64, (S)-2-((6-(6-methoxy-5-(4-methyl-1H-imidazol-1-yl)pyridin-2-yl)-4-methylpyridazin-3-yl)amino) propan-1-ol]

Row | IC50 | Compound
17 | 53 nM | COc1nc(-c2cc(C)c(N[C@H](C)C(C)C)nn2)ccc1-n1cnc(C)c1 [Example 66, (R)-6-(6-methoxy-5-(4-methyl-1H-imidazol-1-yl)pyridin-2-yl)-4-methyl-N-(3-methylbutan-2-yl)pyridazin-3-amine]
18 | 95 nM | COc1nc(-c2cc(C)c(N[C@@H](C)c3ccccn3)nn2)ccc1-n1cnc(C)c1 [Example 67, (S)-6-(6-methoxy-5-(4-methyl-1H-imidazol-1-yl)pyridin-2-yl)-4-methyl-N-(1-(pyridin-2-yl)ethyl)pyridazin-3-amine]
19 | 80 nM | COc1nc(-c2cc(C)c(N[C@H](C)c3ccccc3)nn2)ccc1-n1cnc(C)c1 [Example 68, (R)-6-(6-methoxy-5-(4-methyl-1H-imidazol-1-yl)pyridin-2-yl)-4-methyl-N-(1-phenylethyl)pyridazin-3-amine]
20 | 4.5 nM | COc1nc(-c2cc(C)c(N[C@@H](C)c3ccc(F)cc3C)nn2)ccc1-n1cnc(C)c1 [Example 69, (S)—N-(1-(4-fluoro-2-methylphenyl)ethyl)-6-(6-methoxy-5-(4-methyl-1H-imidazol-1-yl)pyridin-2-yl)-4-methylpyridazin-3-amine]
21 | 425 nM | COc1nc(-c2cc(C)c(NC3CC3)nn2)ccc1-n1cnc(C)c1 [Example 70, N-cyclopropyl-6-(6-methoxy-5-(4-methyl-1H-imidazol-1-yl)pyridin-2-yl)-4-methylpyridazin-3-amine]
22 | 22 nM | COc1nc(-c2cc(C)c(N[C@@H](CO)c3ccc(F)cc3)nn2)ccc1-n1cnc(C)c1 [Example 71, (R)-2-(4-fluorophenyl)-2-((6-(6-methoxy-5-(4-methyl-1H-imidazol-1-yl)pyridin-2-yl)-4-methylpyridazin-3-yl)amino)ethanol]
23 | 3.5 nM | COc1nc(-c2cc(C)c(N[C@@H](C)c3c(F)cc(F)cc3F)nn2)ccc1-n1cnc(C)c1 [Example 75, (S)-6-(6-methoxy-5-(4-methyl-1H-imidazol-1-yl)pyridin-2-yl)-4-methyl-N-(1-(2,4,6-trifluorophenyl)ethyl)pyridazin-3-amine]
24 | 29 nM | COc1nc(-c2cc(C)c(N[C@@H](C)C(C)(C)C)nn2)ccc1-n1cnc(C)c1 [Example 76, (S)—N-(3,3-dimethylbutan-2-yl)-6-(6-methoxy-5-(4-methyl-1H-imidazol-1-yl)pyridin-2-yl)-4-methyl pyridazin-3-amine]
25 | 27 nM | COc1nc(-c2cc(C)c(N[C@@H](C)c3ccc(C#N)cc3)nn2)ccc1-n1cnc(C)c1 [Example 77, (S)-4-(1-((6-(6-methoxy-5-(4-methyl-1H-imidazol-1-yl)pyridin-2-yl)-4-methylpyridazin-3-yl)amino)ethyl)benzonitrile]
26 | 61 nM | COc1nc(-c2cc(C)c(NC3CCCC3)nn2)ccc1-n1cnc(C)c1 [Example 78, N-cyclopentyl-6-(6-methoxy-5-(4-methyl-1H-imidazol-1-yl)pyridin-2-yl)-4-methylpyridazin-3-amine]
27 | 7.5 nM | CCC[C@H](Nc1nnc(-c2ccc(-n3cnc(C)c3)c(OC)n2)cc1C)c1ccc(F)cc1 [Example 79, (S)—N-(1-(4-fluorophenyl)butyl)-6-(6-methoxy-5-(4-methyl-1H-imidazol-1-yl)pyridin-2-yl)-4-methylpyridazin-3-amine]
28 | 1100 nM | COc1nc(-c2cc(C)c(N[C@H](CO)c3ccc(F)cc3)nn2)ccc1-n1cnc(C)c1 [Example 80, (S)-2-(4-fluorophenyl)-2-((6-(6-methoxy-5-(4-methyl-1H-imidazol-1-yl)pyridin-2-yl)-4-methylpyridazin-3-yl)amino)ethanol]
29 | 27 nM | COc1nc(-c2cc(C)c(NC3CCCCC3)nn2)ccc1-n1cnc(C)c1 [Example 81, N-cyclohexyl-6-(6-methoxy-5-(4-methyl-1H-imidazol-1-yl)pyridin-2-yl)-4-methylpyridazin-3-amine]
30 | 3.5 nM | COc1nc(-c2cc(C)c(N[C@@H](C)c3ccc(F)cc3C(F)(F)F)nn2)ccc1-n1cnc(C)c1 [Example 82, (S)—N-(1-(4-fluoro-2-(trifluoromethyl)phenyl)ethyl)-6-(6-methoxy-5-(4-methyl-1H-imidazol-1-yl)pyridin-2-yl)-4-methylpyridazin-3-amine]
31 | 27 nM | COc1nc(-c2cc(C)c(N[C@@H]3C[C@H]3c3ccc(F)c(F)c3)nn2)ccc1-n1cnc(C)c1 [Example 83, N-((1R,2S)-2-(3,4-difluorophenyl)cyclopropyl)-6-(6-methoxy-5-(4-methyl-1H-imidazol-1-yl)pyridin-2-yl)-4-methylpyridazin-3-amine]
